Measurements as given in US8835456B1, “NS5A inhibitors useful for treating HCV” (Achillion Pharmaceuticals, Inc., priority 2011, dated 2014).

Test system: Hepatitis C replicon
Experiment: HCV replicon replication assay (NPT level by captured ELISA)
Type: cell-based
Details: Hepatitis C virus, Huh-7, 72 h
Experimental: Compounds claimed herein are tested for the ability to inhibit viral replication of the Hepatitis C replicon in cultured cells in which the HCV replicon construct has been incorporated. The HCV replicon system was described by Bartenschlager, et. al (Science, 285, pp. 110-113 (1999)). The replicon system is predictive of in vivo anti-HCV activity; compounds that are active in humans uniformly evidence activity in the replicon assay.
In this assay HCV replicon containing cells are treated with different concentrations of the test compound to ascertain the ability of the test compound to suppress replication of the HCV replicon. As a positive control, HCV replicon-containing cells are treated with different concentrations of interferon alpha, a known inhibitor of HCV replication. The replicon assay system includes Neomycin Phosphotransferase (NPT) as a component of the replicon itself in order to detect the transcription of replicon gene products in the host cell. Cells in which the HCV replicon is actively replicating have high levels of NPT; the level of NPT is proportional to HCV replication. […] The NPT level of each sample is measured using a captured ELISA.
A protocol for testing compounds for the ability to inhibit viral replication of the Hepatitis C replicon cultured cells in which the replicon construct has been incorporated, follows.
The HCV genome consists of a single ORF that encodes a 3000 amino acid polyprotein. The ORF is flanked on the 5′ side by an untranslated region that serves as an internal ribosome entry site (IRES) and at the 3′ side by a highly conserved sequence necessary for viral replication (3′-NTR). The structural proteins, necessary for viral infection, are located near the 5′ end of the ORF. The non-structural proteins, designated NS2 to NS5B comprise the remainder of the ORF. […]
HCV replicon-containing cells are examined under a microscope to ensure that cells growing well. […] The cells are counted. […]

**Q.** `COC(=O)N[C@H](C(=O)N1C2CCC(C2)[C@H]1c1nc(-c2ccc(-c3ccc(-c4c[nH]c([C@@H]5CC6CCCCC6N5C(=O)[C@@H](NC(=O)OC)C(C)C)n4)cc3)cc2)c[nH]1)C(C)C` (stereo partly drawn) [Compound 10] was tested. Which EC50 did it give?
**A.** < 10 nM

**Q.** For `COC(=O)N[C@H](C(=O)N1C2CCC(C2)[C@H]1c1nc(-c2ccc(-c3ccc(-c4c[nH]c([C@@H]5CC6CCCCC6N5C(=O)[C@@H](NC(=O)OC)C(C)C)n4)cc3)nc2)c[nH]1)C(C)C` (stereo partly drawn) [Compound 14], which EC50 is on record?
**A.** < 10 nM

**Q.** How did the EC50 turn out when `COC(=O)N[C@H](C(=O)N1C2CCC(C2)[C@H]1c1nc(-c2ccc(-c3ccc(-c4c[nH]c([C@@H]5CC6CCCCC6N5C(=O)[C@@H](NC(=O)OC)C(C)C)n4)cc3)s2)c[nH]1)C(C)C` (stereo partly drawn) [Compound 15] was run?
**A.** < 10 nM
